Our source for the EC50 values is patent US10544102B2, “Benzazepine dicarboxamide compounds with secondary amide function” (Hoffmann-La Roche Inc., priority 2017, dated 2020).

In one assay the target is T1, human TLR8 (Homo sapiens, UniProt Q9NR97).
T1 construct: host or cells: HEK-Blue human TLR8 cells (HEK293-derived reporter line)
T1 sequence (Q9NR97 27-1041): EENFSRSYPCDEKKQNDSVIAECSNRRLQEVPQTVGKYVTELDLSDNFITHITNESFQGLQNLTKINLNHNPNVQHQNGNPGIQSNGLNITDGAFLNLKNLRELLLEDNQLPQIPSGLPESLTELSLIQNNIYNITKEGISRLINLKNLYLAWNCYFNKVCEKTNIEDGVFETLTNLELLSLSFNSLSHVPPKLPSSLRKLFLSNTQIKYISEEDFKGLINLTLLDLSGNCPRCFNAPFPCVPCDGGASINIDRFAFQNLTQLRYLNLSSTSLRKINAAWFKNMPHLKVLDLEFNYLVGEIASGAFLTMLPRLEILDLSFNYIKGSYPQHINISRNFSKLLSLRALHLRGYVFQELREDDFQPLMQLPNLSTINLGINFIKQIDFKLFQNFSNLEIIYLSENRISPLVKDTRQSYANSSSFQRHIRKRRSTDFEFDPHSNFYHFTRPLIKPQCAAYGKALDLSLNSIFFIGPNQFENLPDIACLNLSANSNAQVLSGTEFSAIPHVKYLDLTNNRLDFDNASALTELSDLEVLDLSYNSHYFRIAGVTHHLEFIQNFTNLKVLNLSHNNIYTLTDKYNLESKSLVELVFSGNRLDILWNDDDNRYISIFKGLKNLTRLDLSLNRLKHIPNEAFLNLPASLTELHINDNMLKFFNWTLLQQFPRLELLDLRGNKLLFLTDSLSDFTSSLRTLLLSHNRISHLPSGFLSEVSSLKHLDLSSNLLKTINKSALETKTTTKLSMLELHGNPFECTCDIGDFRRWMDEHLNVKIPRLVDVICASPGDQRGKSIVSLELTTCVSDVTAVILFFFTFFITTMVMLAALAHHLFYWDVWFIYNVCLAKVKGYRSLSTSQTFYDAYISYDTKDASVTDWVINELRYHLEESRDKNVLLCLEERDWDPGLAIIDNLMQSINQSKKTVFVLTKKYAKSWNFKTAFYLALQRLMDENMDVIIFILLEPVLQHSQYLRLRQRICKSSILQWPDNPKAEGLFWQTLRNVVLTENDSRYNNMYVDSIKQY
The assay is described as follows: HEK-Blue human TLR8 cells NF-κB SEAP reporter assay. Type of assay: cell-based. To be noted: stimulation for 20 hours, Quanti Blue 640 nm. The source says: (§1) For TLR8 and TLR7 activity testing, HEK-Blue human TLR8 or TLR7 cells (Invivogen, San Diego, Calif., USA) are used, respectively. These cells are designed for studying the stimulation of human TLR8 or TLR7 by monitoring the activation of NF-κB. A SEAP (secreted embryonic alkaline phosphatase) reporter gene is placed under the control of the IFN-b minimal promoter fused to five NF-κB and AP-1-binding sites. Therefore the reporter expression is regulated by the NF-κB promoter upon stimulation of human TLR8 or TLR7 for 20 hours. The cell culture supernatant SEAP reporter activity was determined using Quanti Blue kit (Invivogen, San Diego, Calif., USA) at a wavelength of 640 nm, a detection medium that turns purple/blue in the presence of alkaline phosphatase. EC50 values were determined using Activity Base analysis (ID Business Solution, Limited).
(In general: In a reporter assay the amount or activity of a reporter protein is the signal.)

In a further assay the target is T2, human TLR7 (Homo sapiens, UniProt Q9NYK1).
T2 construct: host or cells: HEK-Blue human TLR7 cells (HEK293-derived reporter line)
T2 sequence (Q9NYK1 27-1049): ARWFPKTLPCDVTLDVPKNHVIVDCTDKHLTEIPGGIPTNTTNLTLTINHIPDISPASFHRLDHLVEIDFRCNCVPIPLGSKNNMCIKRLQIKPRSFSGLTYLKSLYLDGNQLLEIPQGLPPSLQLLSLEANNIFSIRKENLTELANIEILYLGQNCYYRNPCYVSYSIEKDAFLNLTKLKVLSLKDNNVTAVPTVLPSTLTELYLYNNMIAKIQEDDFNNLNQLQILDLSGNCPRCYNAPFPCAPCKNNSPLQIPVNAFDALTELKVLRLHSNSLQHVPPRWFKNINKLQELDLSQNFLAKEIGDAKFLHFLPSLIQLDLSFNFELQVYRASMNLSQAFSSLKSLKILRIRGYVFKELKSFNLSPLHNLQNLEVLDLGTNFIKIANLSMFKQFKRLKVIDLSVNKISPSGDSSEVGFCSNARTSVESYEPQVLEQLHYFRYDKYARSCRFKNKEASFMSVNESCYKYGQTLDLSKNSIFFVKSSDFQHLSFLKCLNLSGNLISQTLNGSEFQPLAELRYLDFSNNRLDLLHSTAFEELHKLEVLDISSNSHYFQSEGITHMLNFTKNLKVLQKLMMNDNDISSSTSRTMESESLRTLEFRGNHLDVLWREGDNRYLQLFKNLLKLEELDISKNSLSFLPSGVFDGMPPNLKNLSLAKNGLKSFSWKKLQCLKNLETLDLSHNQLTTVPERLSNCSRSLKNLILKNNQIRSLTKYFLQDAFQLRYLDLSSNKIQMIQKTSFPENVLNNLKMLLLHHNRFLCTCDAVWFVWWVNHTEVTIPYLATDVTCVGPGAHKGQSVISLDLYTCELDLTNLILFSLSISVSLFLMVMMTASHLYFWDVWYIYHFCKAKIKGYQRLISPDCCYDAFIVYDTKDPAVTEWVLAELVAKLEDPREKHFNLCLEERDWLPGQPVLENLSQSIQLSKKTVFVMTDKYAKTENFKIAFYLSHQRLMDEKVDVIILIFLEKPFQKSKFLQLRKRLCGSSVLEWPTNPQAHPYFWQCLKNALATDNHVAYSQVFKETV
The assay is described as follows: HEK-Blue human TLR7 cells NF-κB SEAP reporter assay. Type of assay: cell-based. To be noted: stimulation for 20 hours, Quanti Blue 640 nm.
From the text: as §1

A value given as a limit tells only on which side of the number the result lay.

For orientation: EC50 means the concentration at which the effect is half-maximal. A lower EC50 goes with higher potency in that assay. Take `CCCN(CCC)C(=O)C1=Cc2ccc(C(=O)N[C@H](C)c3ccccc3)cc2N=C(N)C1` [Example 14, 2-Amino-N8-[(1R)-1-phenylethyl]-N4,N4-dipropyl-3H-1-benzazepine-4,8-dicarboxamide]: the EC50 at human TLR8 turned out to be 0.012 µM; at human TLR7, 35 µM.
Regarding `CCCN(CCC)C(=O)C1=Cc2ccc(C(=O)NC3CCCC3)cc2N=C(N)C1` [Example 15, 2-Amino-N8-cyclopentyl-N4,N4-dipropyl-3H-1-benzazepine-4,8-dicarboxamide], the EC50 on human TLR8 was 0.014 µM; on human TLR7 it was above 100 µM.
Consider `CCCN(CCC)C(=O)C1=Cc2ccc(C(=O)NC(C)(C)C)cc2N=C(N)C1` [Example 16, 2-Amino-N8-tert-butyl-N4,N4-dipropyl-3H-1-benzazepine-4,8-dicarboxamide], for which the EC50 was 0.028 µM on human TLR8 and 50 µM at human TLR7.
As to `CCCN(CCC)C(=O)C1=Cc2ccc(C(=O)NC3CCC3)cc2N=C(N)C1` [Example 17, 2-Amino-N8-cyclobutyl-N4,N4-dipropyl-3H-1-benzazepine-4,8-dicarboxamide], the EC50 at human TLR8 was 0.025 µM; at human TLR7 it was above 100 µM.
Turning to `CCCN(CCC)C(=O)C1=Cc2ccc(C(=O)NCc3ccccc3)cc2N=C(N)C1` [Example 18, 2-Amino-N8-benzyl-N4,N4-dipropyl-3H-1-benzazepine-4,8-dicarboxamide], the EC50 on human TLR8 is 0.026 µM; on human TLR7 it was 25 µM.
For `CCCN(CCC)C(=O)C1=Cc2ccc(C(=O)NCc3cccnc3)cc2N=C(N)C1` [Example 19, 2-Amino-N4,N4-dipropyl-N8-(3-pyridylmethyl)-3H-1-benzazepine-4,8-dicarboxamide], in that order: 0.025 µM and 49 µM.
For `CCCN(CCC)C(=O)C1=Cc2ccc(C(=O)NCCc3cccnc3)cc2N=C(N)C1` [Example 20, 2-Amino-N4,N4-dipropyl-N8-[2-(3-pyridyl)ethyl]-3H-1-benzazepine-4,8-dicarboxamide], in that order: 0.03 µM and above 100 µM.
For `CCCN(CCC)C(=O)C1=Cc2ccc(C(=O)NCCCc3cccnc3)cc2N=C(N)C1` [Example 21, 2-Amino-N4,N4-dipropyl-N8-[3-(3-pyridyl)propyl]-3H-1-benzazepine-4,8-dicarboxamide], in that order: 0.029 µM and above 100 µM.
As for `CCCN(CC1CC1)C(=O)C1=Cc2ccc(C(=O)NC3C[C@H]3c3ccccc3)cc2N=C(N)C1` (stereo partly drawn) [Example 22, 2-Amino-N4-(cyclopropylmethyl)-N8-[(2S)-2-phenylcyclopropyl]-N4-propyl-3H-1-benzazepine-4,8-dicarboxamide], the values for the EC50 on human TLR8 and at human TLR7 were 0.005 µM and 14 µM, respectively.
Consider `CCCN(CCC)C(=O)C1=Cc2ccc(C(=O)NC3CCCN(c4ccccc4)C3)cc2N=C(N)C1` (stereo not drawn) [Example 23, 2-Amino-N8-(1-phenyl-3-piperidyl)-N4,N4-dipropyl-3H-1-benzazepine-4,8-dicarboxamide], for which the concentration for a half-maximal effect (EC50) at human TLR8 was 0.01 µM; on human TLR7 it was above 100 µM.
For `CCCN(CCC)C(=O)C1=Cc2ccc(C(=O)NC3CCN(c4ccccc4)C3)cc2N=C(N)C1` (stereo not drawn) [Example 24, 2-Amino-N8-(1-phenylpyrrolidin-3-yl)-N4,N4-dipropyl-3H-1-benzazepine-4,8-dicarboxamide], in that order: 0.019 µM and above 100 µM.
For `CCCN(CCC)C(=O)C1=Cc2ccc(C(=O)N[C@H]3CCN(c4ccccc4)C3)cc2N=C(N)C1` [Example 25, 2-Amino-N8-[(3S)-1-phenylpyrrolidin-3-yl]-N4,N4-dipropyl-3H-1-benzazepine-4,8-dicarboxamide], the EC50 is 0.01 µM at human TLR8 and above 100 µM at human TLR7.
For `CCCN(CCC)C(=O)C1=Cc2ccc(C(=O)NC3CCC(CNc4ccccc4)CC3)cc2N=C(N)C1` (stereo not drawn) [Example 26, 2-Amino-N8-[4-(anilinomethyl)cyclohexyl]-N4,N4-dipropyl-3H-1-benzazepine-4,8-dicarboxamide], in that order: 0.009 µM and above 100 µM.
On to `CCCN(CCC)C(=O)C1=Cc2ccc(C(=O)NC3CC(CNc4ccccc4)C3)cc2N=C(N)C1` (stereo not drawn) [Example 27, 2-Amino-N8-[3-(anilinomethyl)cyclobutyl]-N4,N4-dipropyl-3H-1-benzazepine-4,8-dicarboxamide], for which the EC50 is 0.007 µM at human TLR8 and above 100 µM on human TLR7.
For the compound `CCCN(CCC)C(=O)C1=Cc2ccc(C(=O)N[C@@H]3CCN(c4ccccc4)C3)cc2N=C(N)C1` [Example 28, 2-Amino-N8-[(3R)-1-phenylpyrrolidin-3-yl]-N4,N4-dipropyl-3H-1-benzazepine-4,8-dicarboxamide], the EC50 was 0.01 µM at human TLR8 and above 100 µM on human TLR7.
